This assay concerns the target T1, Human M4 (Homo sapiens, UniProt P08173).
T1 sequence (P08173 1-479): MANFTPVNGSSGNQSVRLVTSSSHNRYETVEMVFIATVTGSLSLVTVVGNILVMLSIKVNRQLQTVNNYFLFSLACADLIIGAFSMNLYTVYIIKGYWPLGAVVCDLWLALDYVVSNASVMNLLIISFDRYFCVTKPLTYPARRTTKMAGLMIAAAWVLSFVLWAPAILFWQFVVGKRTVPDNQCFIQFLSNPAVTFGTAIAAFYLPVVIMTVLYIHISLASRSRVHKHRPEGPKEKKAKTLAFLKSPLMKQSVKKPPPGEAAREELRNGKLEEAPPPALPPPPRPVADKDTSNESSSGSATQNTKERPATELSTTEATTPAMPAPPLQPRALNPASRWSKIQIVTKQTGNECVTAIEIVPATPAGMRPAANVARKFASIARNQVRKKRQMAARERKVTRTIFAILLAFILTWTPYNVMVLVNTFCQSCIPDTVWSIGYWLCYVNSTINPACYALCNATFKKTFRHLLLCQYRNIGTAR
In words: M4 cell-based functional assay (calcium mobilization). Also noted: expressed in transfected cells. Conditions: for Emax at 30 µM: % ACh maximum at 30 μM; for EC50: CHO-K1 hM4-Gqi5 cells, calcium flux, increase in EC20 acetylcholine response. As to the method: Human (h) and rat (r) M4 CDNAs, along with the chimeric G protein Gqi5, were transfected into Chinese hamster ovary (CHO-K1) cells purchased from the American Type Culture Collection using Lipofectamine2000. The transfected cells were subjected to selection antibiotic treatment to generate stable cell lines; G418 sulfate (1 mg/ml) for selecting M4 expressing cells and Hygromycin B (500 μg/mL) for selecting Gqi5 expressing cells. The resulting polyclones were further screened to obtain monoclones of hM4-Gqi5 and rM4-Gqi5 for compound screening assay. Stable monoclone cells were maintained in Ham's F-12 medium containing 10% heat-inactivated fetal bovine serum (FBS), 1× Antibiotic/Antimycotic, 20 mM HEPES, 500 μg/mL G418 sulfate, and 200 μg/mL Hygromycin B in 37° C. humidified incubators in the presence of 5% CO2.
The high throughput assay was employed to measure receptor-induced mobilization of intracellular calcium to determine compound activity. Test compound was added to cells expressing the muscarinic receptors that were loaded with calcium sensitive fluorescent dye. After a ˜2.5 minute incubation period, a submaximal (EC20) concentration of acetylcholine was added, and the response measured. This kinetic assay allows for simultaneous screening and potency determination of multiple pharmacological modes of action including agonist and potentiator activity. CHO-K1 cells stably expressing muscarinic receptors were plated in growth medium lacking G418 and hygromycin at 15,000 cells/20 μL/well in Greiner 384-well black-walled, tissue culture (TC)-treated, clear-bottom plates (Greiner Bio-One). Cells were incubated overnight at 37° C. and 5% CO2. The next day, calcium assay buffer (Hank's balanced salt solution (HBSS), 20 mM HEPES, 2.5 mM Probenecid, 4.16 mM sodium bicarbonate (Sigma-Aldrich, St. Louis, MO)) was prepared to dilute compounds, agonists, and Fluo-4-acetomethoxyester (Fluo-4-AM), fluorescent calcium indicator dye. Compounds were serially diluted 1:3 into 10 point concentration response curves in DMSO using the Bravo Liquid Handler (Agilent, Santa Clara, CA), transferred to a 384 well daughter plates using an Echo acoustic liquid handler (Beckman Coulter, Indianapolis, Indiana), and diluted in assay Buffer to a 2× final concentration. The agonist plates were prepared using acetylcholine (ACh, Sigma-Aldrich, St. Louis, MO) concentrations for the EC20 and ECMAX responses by diluting in assay buffer to a 5× final concentration. The 2× dye solution (2.3 μM) was prepared by mixing a 2.3 mM Fluo-4-AM stock in DMSO with 10% (w/v) pluronic acid F-127 in a 1:1 ratio in assay buffer. Using a microplate washer (BioTek, Winooski, VT), cells were washed with assay buffer for 3 times to remove medium. After the final wash, 20 μL of assay buffer remained in the cell plates. Immediately, 20 μL of the 2× dye solution (final 1.15 μM) was added to each well of the cell plate using a Multidrop Combi dispenser (Thermo Fisher, Waltham, MA). After cells were incubated with the dye solutions for 45 min at 37° C. in the presence of 5% CO2, the dye solutions were removed and replaced with assay buffer using a microplate washer, leaving 20 μL of assay buffer in the cell plate.
The prepared compound, agonist, and cell plates were placed inside the Functional Drug Screening System uCell (FDSS uCell, Hamamatsu, Japan) to measure the calcium flux.
The triple add protocol was used to measure Ca kinetics; Compound, ACh for EC2O, and ACh for EC80 adds in an order. Briefly, after establishment of a fluorescence baseline for 2 seconds (excitation, 480 nm; emission, 530 nm), first add occurred by adding 20 μL of test compound to the cells, and the response was measured for 140 seconds. This is followed by second add; 10 μL (5×) of an EC20 concentration of ACh agonist was added to the cells, and the response of the cells was measured for 125 seconds. […]
Background: Calcium flux is commonly read through the fluorescence of an indicator in the cells.

We go through 22 compounds from patent publication US12139498B1, “Positive allosteric modulators of the muscarinic acetylcholine receptor M4” (Vanderbilt University, priority 2023, dated 2024).

As to `Cc1cc(C#N)cnc1N1CCc2ncsc2C1` [Compound 17, 6-(6,7-dihydrothiazolo[5,4-c]pyridin-5(4H)-yl)-5-methylnicotinonitrile], the Emax (in general, the size of the effect at its maximum, as opposed to the concentration needed) at 30 µM is 92% and the EC50 (commonly the concentration at which the effect is half-maximal) was found to be 3170 nM.

For `Cc1c(C#N)nnc(N2CCc3nc(Nc4ccc(F)cc4)sc3C2)c1C` [Compound 7, 6-(2-((4-fluorophenyl)amino)-6,7-dihydrothiazolo[5,4-c]pyridin-5(4H)-yl)-4,5-dimethylpyridazine-3-carbonitrile], the Emax at 30 µM was determined as 49% and the EC50 is 1290 nM.

On to `Cc1cc2nc(C(=O)N3CC(C)(F)C3)cc(=O)n2nc1N1CCc2nc(Br)sc2C1` [Compound 45, 7-(2-bromo-6,7-dihydrothiazolo[5,4-c]pyridin-5(4H)-yl)-2-(3-fluoro-3-methylazetidine-1-carbonyl)-8-methyl-4H-pyrimido[1,2-b]pyridazin-4-one], for which the maximal response (Emax) at 30 µM worked out at 85% and the EC50 came to 752 nM.

Take `Cc1nc2c(s1)CN(c1ncc(C#N)cc1C)CC2` [Compound 15, 5-methyl-6-(2-methyl-6,7-dihydrothiazolo[5,4-c]pyridin-5(4H)-yl)nicotinonitrile]: the Emax at 30 µM was determined as 87% and the half-maximal effective concentration (EC50) worked out at 371 nM.

For the compound `Cc1cc2nccnc2nc1N1CCc2ncsc2C1` [Compound 53, 5-(7-methylpyrido[2,3-b]pyrazin-6-yl)-4,5,6,7-tetrahydrothiazolo[5,4-c]pyridine], the maximum response (Emax) at 30 µM came out at 82% and the EC50 is 2790 nM.

For the compound `Cc1cc2nccnc2nc1N1CCc2nc(C3(C)CC3)sc2C1` [Compound 55, 2-(1-methylcyclopropyl)-5-(7-methylpyrido[2,3-b]pyrazin-6-yl)-4,5,6,7-tetrahydrothiazolo[5,4-c]pyridine], the Emax at 30 µM was determined as 76% and the EC50 stood at 253 nM.

In the case of `Cc1c(N2CCc3nc(C4(F)CC4)sc3C2)nc2n[nH]c(=O)n2c1C` [Compound 69, 7-(2-(1-fluorocyclopropyl)-6,7-dihydrothiazolo[5,4-c]pyridin-5(4H)-yl)-5,6-dimethyl-[1,2,4]triazolo[4,3-a]pyrimidin-3(2H)-one], the Emax at 30 µM stood at 88% and the EC50 turned out to be 18 nM.

Consider `Cc1cc(C#N)cnc1N1CCc2nc(Br)sc2C1` [Compound 1, 6-(2-bromo-6,7-dihydrothiazolo[5,4-c]pyridin-5(4H)-yl)-5-methylnicotinonitrile], for which the Emax at 30 µM was determined as 92% and the concentration for a half-maximal effect (EC50) stood at 59 nM.

Take `Cc1cc2nc(C(=O)N3CC4(COC4)C3)cc(=O)n2nc1N1CCc2nc(Br)sc2C1` [Compound 47, 7-(2-bromo-6,7-dihydrothiazolo[5,4-c]pyridin-5(4H)-yl)-8-methyl-2-(2-oxa-6-azaspiro[3.3]heptane-6-carbonyl)-4H-pyrimido[1,2-b]pyridazin-4-one]: the Emax at 30 µM came out at 66% and the EC50 is 1940 nM.

Consider `Cc1cc2nccnc2nc1N1CCc2nc(C(C)(C)C)sc2C1` [Compound 65, 2-(tert-butyl)-5-(7-methylpyrido[2,3-b]pyrazin-6-yl)-4,5,6,7-tetrahydrothiazolo[5,4-c]pyridine], for which the maximal effect (Emax) at 30 µM was found to be 57% and the EC50 is 1890 nM.

On to `Cc1coc2ncnc(N3CCc4nc(Br)sc4C3)c12` [Compound 22, 4-(2-bromo-6,7-dihydrothiazolo[5,4-c]pyridin-5(4H)-yl)-5-methylfuro[2,3-d]pyrimidine], for which the Emax at 30 µM worked out at 96% and the EC50 was found to be 106 nM.

Regarding `CCOC(=O)c1nc2c(s1)CN(c1nc3nccnc3cc1C)CC2` [Compound 58, ethyl 5-(7-methylpyrido[2,3-b]pyrazin-6-yl)-4,5,6,7-tetrahydrothiazolo[5,4-c]pyridine-2-carboxylate], the Emax at 30 µM stood at 86% and the concentration for a half-maximal effect (EC50) was determined as 1840 nM.

As for `Cc1cc(C#N)cnc1N1CCc2nc(-c3cnn(C4CCC4)c3)sc2C1` [Compound 4, 6-(2-(1-cyclobutyl-1H-pyrazol-4-yl)-6,7-dihydrothiazolo[5,4-c]pyridin-5(4H)-yl)-5-methylnicotinonitrile], the Emax at 30 µM is 54% and the EC50 was over 10000 nM.

Consider `Cc1cn2c(=O)[nH]nc2nc1N1CCc2nc(C3CCC3)sc2C1` [Compound 66, 7-(2-cyclobutyl-6,7-dihydrothiazolo[5,4-c]pyridin-5(4H)-yl)-6-methyl-[1,2,4]triazolo[4,3-a]pyrimidin-3(2H)-one], for which the Emax at 30 µM was determined as 76% and the EC50 amounted to 13 nM.

Turning to `Cc1nc(N2CCc3nc(Br)sc3C2)c2cc(F)ccc2n1` [Compound 33, 2-bromo-5-(6-fluoro-2-methylquinazolin-4-yl)-4,5,6,7-tetrahydrothiazolo[5,4-c]pyridine], the Emax at 30 µM was found to be 99% and the 50% effective concentration (EC50) came to 79 nM.

In the case of `Cc1c(N2CCc3nc(C4CC4)sc3C2)nc2nn(CC3CC3(F)F)c(=O)n2c1C` (centres unmarked) [Compound 74, 7-(2-cyclopropyl-6,7-dihydrothiazolo[5,4-c]pyridin-5(4H)-yl)-2-((2,2-difluorocyclopropyl)methyl)-5,6-dimethyl-[1,2,4]triazolo[4,3-a]pyrimidin-3(2H)-one], the Emax at 30 µM turned out to be 94% and the EC50 came to 7 nM.

For the compound `Cc1cc2nccnc2nc1N1CCc2nc(C3CC3)sc2C1` [Compound 54, 2-cyclopropyl-5-(7-methylpyrido[2,3-b]pyrazin-6-yl)-4,5,6,7-tetrahydrothiazolo[5,4-c]pyridine], the Emax at 30 µM was 82% and the EC50 was 32 nM.

Regarding `COc1ccc2ncnc(N3CCc4nc(Br)sc4C3)c2c1` [Compound 31, 2-bromo-5-(6-methoxyquinazolin-4-yl)-4,5,6,7-tetrahydrothiazolo[5,4-c]pyridine], the Emax at 30 µM is 68% and the concentration for a half-maximal effect (EC50) worked out at 566 nM.

`Cc1cc(-c2nc3c(s2)CN(c2ncc(C#N)cc2C)CC3)ccn1` [Compound 2, 5-methyl-6-(2-(2-methylpyridin-4-yl)-6,7-dihydrothiazolo[5,4-c]pyridin-5(4H)-yl)nicotinonitrile]: the Emax at 30 µM amounted to 59% and the EC50 is 612 nM.

`Cc1cc2nccnc2nc1N1CCc2nc(-c3ccnn3C)sc2C1` [Compound 59, 2-(1-methyl-1H-pyrazol-5-yl)-5-(7-methylpyrido[2,3-b]pyrazin-6-yl)-4,5,6,7-tetrahydrothiazolo[5,4-c]pyridine]: the Emax at 30 µM is 54% and the concentration for a half-maximal effect (EC50) was 2780 nM.

`Cc1c(N2CCc3nc(C4(C)CC4)sc3C2)nc2n[nH]c(=O)n2c1C` [Compound 68, 5,6-dimethyl-7-(2-(1-methylcyclopropyl)-6,7-dihydrothiazolo[5,4-c]pyridin-5(4H)-yl)-[1,2,4]triazolo[4,3-a]pyrimidin-3(2H)-one]: the maximal effect (Emax) at 30 µM was 97% and the EC50 turned out to be 40 nM.

For the compound `Cc1cc(C#N)cnc1N1CCc2nc(-c3cncs3)sc2C1` [Compound 3, 5-methyl-6-(2-(thiazol-5-yl)-6,7-dihydrothiazolo[5,4-c]pyridin-5(4H)-yl)nicotinonitrile], the Emax at 30 µM stood at 45% and the EC50 was over 10000 nM.
